# From patent publication US20240000791A1, “Methods of Using 4-Amino-N-[4-(Methoxymethyl)Phenyl]-7-(1-Methylcyclopropyl)-6-(3-Morpholinoprop-1-YN-1-YL)-7H-Pyrrolo[2,3-D]Pyrimidine-5-Carboxamide for the Treatment of Tumors” (Helsinn Healthcare SA, priority 2020, published 2024)
# Legend:
# [1] = tested on: cell line from a patient who acquired resistance to RXDX-105 (KIF5B-RET fusion); experiment: Growth inhibition, RXDX-105-resistant cell line; type: cell-based; conditions: Homo sapiens; RXDX-105-resistant, KIF5B-RET; read-out: IC50 growth inhibition
# [2] = Respiratory system, 4-week GLP study; type: in vivo, rat; conditions: 25, 50 and 90 mg/kg BID, week 4
# Method: The effect of HM06-01/TAS0953-01 on the respiratory system was also investigated after repeated administration with HM06-01/TAS0953-01 at 25, 50 and 90 mg/kg BID in the 4-week GLP study in rats further described in Example 8. Each group comprised 5 animals/group/sex.
# [3] = CNS symptoms and neurotoxicity (Fluoro-Jade C, ATF3) in dog toxicity studies; type: in vivo
# Method: In order to evaluate the potential neurotoxic effect of HM06-01, Fluoro-Jade C staining was performed on nine different brain areas (i.e., frontal pole, optic chiasm, infundibulum, mammillary bodies, base of third cranial nerve, anterior portion of pons and occipital pole section, cerebellum and medulla oblongata) of control dogs and dogs treated with 45 mg/kg BID HM06-01/TAS0953-01 (samples were taken from the 2-week toxicity study in dogs). In addition, ATF3 immunostaining was performed only on one control and one high dose dog treated with 45 mg/kg BID, in order to validate with an alternative method, the absence of any signs of neuronal degeneration or suffering.
# [4] = ECG and blood pressure, 2-week toxicology GLP study; type: in vivo, dog; conditions: for mean arterial blood pressure: high dose females
# Method: The effect of HM06-01/TAS0953-01 on the ECG was investigated in the 2-week toxicology GLP study in dog as described above on Day 12. […] Heart rate and ECG were also not affected at all dose levels tested. […] At +8 h, arterial blood pressure had returned to control/baseline levels. Although this decrease was not statistically significant versus control, it was consistent and noticeable enough to be considered test item related. Nevertheless, since the extent of the change was limited and present only in the high dose females, and as this decrease in blood pressure had no negative impact on the animals' health, it was considered as non-adverse.
# [5] = 4-week GLP toxicity study in dog; type: in vivo; conditions: for AUC(0-t): beagle, dog, in vivo, po, 30 mg/kg, 30 mg/kg BID
# Method: In the 4-week GLP toxicity study in dog, animals received 0, 15, 30, and 45 mg/kg BID HM06-01/TAS0953-01 by oral gavage for 4 consecutive weeks followed by 2-week recovery period. In the high dose of 45 mg/kg BID group, test item-related mortality was observed: 2 males were prematurely sacrificed on Day 17 and Day 18 for ethical reasons (severe clinical signs associated with a significant body weight loss). The main cause of death was the mild to moderate multifocal subacute inflammation with alveolar or bronchioalveolar distribution, accompanied in one male with alveolar foreign body granulomas. In the other male, minimal pancreatic acinar vacuolation/apoptosis with prostatic acinar apoptosis were noted, for which the relationship with test item cannot be excluded.
# [6] = ECG, 4-week toxicology GLP study; type: in vivo, dog
# Method: The effect of HM06-01/TAS0953-01 on the ECG was also investigated in the 4-week toxicology GLP study in dog as described above (and further described in Example 8) on week 1 (Day 2), week 4 (Day 23) and at the end of the 2-week recovery period. […] Whereas, on Day 23, no test item-related effects were noted on electrocardiographic parameters at 15 and 30 mg/kg BID in males. […] These electrocardiographic effects were no longer observed at the end of the 2 week recovery period. In addition, there were no abnormalities in electrocardiogram rhythm and waveforms on Day 2 and Day 23, and at the end of the recovery period.
# [7] = 4-week GLP toxicity study in rat; type: in vivo; conditions: for AUC(0-t): 50 mg/kg, 50 mg/kg BID
# Method: In the 4-week GLP toxicity study in rat, animals received 0, 25, 50, and 90 mg/kg BID HM06-01/TAS0953-01 by oral gavage. In the high dose of 90 mg/kg BID group, test item-related mortality was observed: 3 females were found dead or were prematurely sacrificed for ethical reasons (severe clinical signs like decreased activity, abnormal respiratory rate and erected fur) from Day 10 to Day 14. At necropsy, discolorations of the lungs were generally observed, histologically correlated with adverse moderate to marked inflammatory changes in the lungs (alveolar/perivascular inflammation, macrophages aggregates, alveolar oedema/hemorrhage). One additional female (satellite) was found dead on Day 7 before dosing. However, in absence of clinical sign and of abnormality at necropsy, the relationship with the test item administration was considered doubtful.
# [8] = Proconvulsant and anticonvulsant effects (pentylenetetrazole)
structure (smiles),measurement,setting,value
"COc1cc2nccc(Oc3ccc(NC(=O)C4(C(=O)Nc5ccc(F)cc5)CC4)cc3)c2cc1OC [cabozantinib, reference compound]",IC50,[1],340 nM
"COCc1ccc(NC(=O)c2c(C#CCN3CCOCC3)n(C3(C)CC3)c3ncnc(N)c23)cc1 [HM06-01/TAS0953-01, 4-amino-N-(4-(methoxymethyl)phenyl)-7-(1-methylcyclopropyl)-6-(3-morpholinoprop-1-yn-1-yl)-7H-pyrrolo[2,3-d]pyrimidine-5-carboxamide]",respiratory parameters,[2],Neither toxicologically relevant effects in respiratory parameters were observed at week 4
same,"neuronal degeneration (Fluoro-Jade C, ATF3)","[3]; 45 mg/kg BID, 2-week toxicity study, brain areas",no evidence of any neuronal degeneration
same,dose at which CNS symptoms were seen,[3]; after the first administration in PK studies,≥ 5 mg/kg BID
same,dose at which CNS symptoms were seen,"[3]; after the first daily dose, routine clinical observations, 2-week and 4-week toxicity studies",≥ 15 mg/kg BID
same,QT prolongation,"[4]; 15, 30 and 45 mg/kg BID, Day 12",No evidence of QT prolongation
same,heart rate and ECG,[4]; all dose levels tested,not affected
same,mean arterial blood pressure,"[4]; 1 hour after the second daily dose, vehicle 115",93 mmHg
same,mean arterial blood pressure,"[4]; 5 hours after the first daily dosing, vehicle 127",91 mmHg
same,test item-related mortality,"[5]; 45 mg/kg BID, Day 17 and Day 18",2 males
same,body weight loss,"[5]; 45 mg/kg BID, Male No. 642, day 17",−12%
same,body weight loss,"[5]; 45 mg/kg BID, Male No. 644, day 15",−25%
same,highest non severely toxic dose (HNSTD),"[5]; 4-week, oral gavage",30 mg/kg BID
same,"ophthalmology, urinalysis, coagulation, clinical chemistry",[5]; 4 weeks oral BID,"no change in ophthalmology, urinalysis and on coagulation and clinical chemistry parameters"
same,"hematology, total white blood cell count",[5]; both sexes,increase in total white blood cell count
same,microscopic findings,[5]; end of dosing period,inflammatory microscopic findings in the lungs
same,AUC(0-t),"[5]; female, Day 1, females",29200 ng·h/mL
same,AUC(0-t),"[5]; female, Day 28, females",29100 ng·h/mL
same,dose at which test item-related clinical signs were noted,[5]; from Day 1,≥ 15 mg/kg BID
same,body weight,[5]; low dose,no effect on body weight
same,AUC(0-t),"[5]; male, Day 1, males",21400 ng·h/mL
same,AUC(0-t),"[5]; male, Day 28, males",22300 ng·h/mL
same,ECG effects,"[6]; Day 2, two hours after second daily dose, 15, 30 and 45 mg/kg BID",no effects
same,prolongation of Fridericia and Van der Water corrected QTc interval versus control,"[6]; Day 23, females, 15, 30 and 45 mg/kg",up to 8%
same,heart rate,"[6]; Day 23, males, 45 mg/kg BID",slight increase in heart rate
same,test item-related mortality,"[7]; 90 mg/kg BID, Day 10 to Day 14",3 females
same,decrease of body weight,"[7]; 90 mg/kg BID, both sexes",10%
same,severely toxic dose 10 (STD 10),"[7]; 4-week, oral gavage",50 mg/kg BID
same,ophthalmology,[7]; 4 weeks oral BID,no change in ophthalmology
same,systemic exposure vs dose,[7]; 25-90 mg/kg BID,approximately dose proportional manner
same,body weight,[7]; 25 and 50 mg/kg BID,no effect on body weight
same,systemic accumulation,[7]; Day 28,no systemic accumulation
same,"clinical chemistry, AST and ALT",[7]; both sexes,dose-dependent increase in AST and ALT
same,"hematology, reticulocytes",[7]; both sexes,dose-dependent increase in reticulocytes
same,urine protein concentration,[7]; both sexes,dose-dependent increase in urine protein concentration
same,microscopic findings,[7]; end of dosing period,inflammatory microscopic findings were noted in the lungs
same,AUC(0-t),"[7]; female, rat, in vivo, po, Day 1, females",37200 ng·h/mL
same,AUC(0-t),"[7]; female, rat, in vivo, po, Day 28, females",74300 ng·h/mL
same,AUC(0-t),"[7]; male, rat, in vivo, po, Day 1, males",50300 ng·h/mL
same,AUC(0-t),"[7]; male, rat, in vivo, po, Day 28, males",73000 ng·h/mL
same,Tmax,"[7]; rat, in vivo, po, Day 1, after the first daily dose",7 h
same,Tmax,"[7]; rat, in vivo, po, Day 28, after the first daily dose",1 h
same,half-life,"[7]; rat, in vivo, po, after the second daily dose, when estimable",2.03 to 3.67 h
same,proconvulsant activity,"[8]; 30, 100 and 200 mg/kg oral, 1 hour prior to 25 mg/kg PTZ",did not demonstrate any proconvulsant activity
same,"anticonvulsant effect, total number of convulsions","[8]; 100 and 200 mg/kg oral, pentylenetetrazole",decrease in the total number of convulsions
